# According to patent US7112581B2, “Macrocyclic lactams” (Nereus Pharmaceuticals, Inc., priority 2002, dated 2006):
# Several values for one entry are separate records, joined by “and”; a condition that tells them apart may be missing. Equal entries are not always repeated. Where two headings read alike, the source gives them in different places.
# Key:
# [1] = tested on: Staphylococcus aureus (MSSA); experiment: susceptibility assay by broth microdilution (NCCLS), MSSA; assay type: cell-based; conditions: Staphyloccus aureus MSSA
# Method: (§1) The anti-infective potential of the compound was re-evaluated in susceptibility assays performed by broth microdilution in accordance with National Committee for Clinical Laboratory Standards (NCCLS) guidelines, M7-A5, January 2000. The compound was tested versus the following microorganisms: Staphylococcus aureus (MSSA), Staphylococcus aureus (MRSA), Streptococcus pneumoniae, vancomycin-sensitive Enterococcus faecalis, Haemophilus influenzae, Pseudomonas aeruginosa and Candida albicans.
# [2] = tested on: Haemophilus influenzae 49766; experiment: susceptibility assay by broth microdilution (NCCLS), H. influenzae; assay type: cell-based
# Method: as §1
# [3] = tested on: Enterococcus faecalis ATCC 662000; experiment: antimicrobial resazurin growth assay, E. faecalis; assay type: cell-based; conditions: ATCC662000, 37° C., 4 to 6 hours
# Method: (§2) The biological characteristics of compound of Formula (I) were evaluated in Escherichia coli ATCC 610100, Pseudomonas aeruginosa ATCC 614000, Haemophilus influenzae A21515, Staphylococcus aureus, methicillin resistant (MRSA) ATCC 605000, Enterococcus faecalis ATCC 662000, Streptococcus pneumoniae ATCC 661100 and Candida glabrata ATCC 200918. All cultures were maintained in Brain Heart Infusion Medium (Oxoid), except C. glabrata, which was maintained in Potato Dextrose Broth (Difco).
# (§3) For antimicrobial assays of E. coli, P. aeruginosa, H. influenzae, MRSA, E. faecalis and S. pneumoniae, the cells in Brain Heart Infusion Medium were added to 96 well plates at a volume of 176 μl/well. The compound to be tested was added to the wells (20 μl/well) together with 10 μl of 0.2 mg/ml resazurin (Sigma). The plates were incubated at 37° C. for 4 to 6 hours. The growth of the cultures was monitored by measuring the fluorescence of the plates using a fluorometer with λex=535 nm and λem=590 nm filters. Resazurin dye without cells was used to determine the background, which was subtracted from the data for all experimental wells. The data were analyzed using Prism software (GraphPad Software). The data were normalized to the average of the cells treated with media only (100% cell growth) and the IC50 values were determined using a standard sigmoidal dose response curve fitting algorithm.
# [4] = tested on: Staphylococcus aureus, methicillin resistant (MRSA) ATCC 605000; experiment: antimicrobial resazurin growth assay, MRSA; assay type: cell-based; conditions: 37° C., 4 to 6 hours
# Method: as §2, §3
# [5] = tested on: Pseudomonas aeruginosa 27853; experiment: susceptibility assay by broth microdilution (NCCLS), P. aeruginosa; assay type: cell-based; conditions: Pseudomona aeruginosa 27853
# Method: as §1
# [6] = tested on: Staphylococcus aureus (MRSA); experiment: susceptibility assay by broth microdilution (NCCLS), MRSA; assay type: cell-based; conditions: Staphyloccus aureus MRSA
# Method: as §1
# [7] = tested on: HT-29 (ATCC HTB-38) human colorectal adenocarcinoma; experiment: tumor cytotoxicity assay (resazurin), HT-29; assay type: cell-based; conditions: HT-29, 48 h
# Method: HT-29 (ATCC HTB-38) a human colorectal adenocarcinoma was maintained in McCoy's complete medium (McCoy's 5A medium with L-glutamine and 25 mM HEPES supplemented with 10% FBS, 1 mM Na pyruvate, 1X NEAA, 2 mM L-glutamine, and Pen/Strep at 100 IU/ml and 100 μg/ml, respectively). Cell lines were cultured at 37° C., 5% CO2 in a 95% humidified incubator. For tumor cytotoxicity assays HT-29, PC-3, or B16-F10 cells were seeded at 5×10^3, 5×10^3 or 1.25×10^3 cells/well cells were seeded at 5,000 cells/well in 90 μl complete media into a Corning 3904 black-walled, clear-bottom tissue culture plate and the plate were incubated overnight to allow cells to establish and enter log phase growth. Jurkat cells were seeded on the day of compound addition at 2×10^4 cells/well in 90 μl complete media into a Corning 3904 black-walled, clear-bottom tissue culture plate. 20 mM stock solutions of the compound of Formula (I) were prepared in 100% DMSO and stored at −20° C. 10×concentrated serial dilutions of the compounds were prepared in appropriate culture medium for final concentrations ranging from 2×10–5 to 2×10–12. Ten μl volumes of the 10×serial dilutions were added to the test wells in triplicate and the plates returned to the incubator for 48 hours. The final concentration of DMSO was 0.25% in all samples. […] Because living cells metabolize Resazurin, the fluorescence of the reduction product of Resazurin was measured using a Fusion microplate fluorometer (Packard Bioscience) with λex=535 nm and λem=590 nm filters. The plates were removed and resazurin fluorescence was measured using 530 nm excitation and 590 nm emission filters in a Fusion fluorimeter (Packard Instruments). […] The data were analyzed using Prism software (GraphPad Software). The data were normalized to the average of the cells treated with media only (100% cell growth) and EC50 values were determined using a standard sigmoidal dose response curve fitting algorithm.
# Candida albicans 90028 = experiment: susceptibility assay by broth microdilution (NCCLS), C. albicans; assay type: cell-based
# Method: as §1
# [8] = tested on: Jurkat (ATCC TIB-152) human acute T cell leukemia; experiment: tumor cytotoxicity assay (resazurin), Jurkat; assay type: cell-based
# Method: (§4) Jurkat (ATCC TIB-152) a human acute T cell leukemia was maintained in RPMI complete medium (RPMI 1640 medium supplemented with 10% FBS, 2 mM L-glutamine, 10 mM HEPES, 1 mM Na pyruvate, 1X NEAA, and Pen/Strep at 100 IU/ml and 100 μg/ml, respectively). Cell lines were cultured at 37° C., 5% CO2 in a 95% humidified incubator. For tumor cytotoxicity assays HT-29, PC-3, or B16-F10 cells were seeded at 5×10^3, 5×10^3 or 1.25×10^3 cells/well cells were seeded at 5,000 cells/well in 90 μl complete media into a Corning 3904 black-walled, clear-bottom tissue culture plate and the plate were incubated overnight to allow cells to establish and enter log phase growth. […] Because living cells metabolize Resazurin, the fluorescence of the reduction product of Resazurin was measured using a Fusion microplate fluorometer (Packard Bioscience) with λex=535 nm and λem=590 nm filters. The plates were removed and resazurin fluorescence was measured using 530 nm excitation and 590 nm emission filters in a Fusion fluorimeter (Packard Instruments). […] The data were analyzed using Prism software (GraphPad Software). The data were normalized to the average of the cells treated with media only (100% cell growth) and EC50 values were determined using a standard sigmoidal dose response curve fitting algorithm.
# [9] = tested on: Pseudomonas aeruginosa ATCC 614000; experiment: antimicrobial resazurin growth assay, P. aeruginosa; assay type: cell-based; conditions: ATCC614000, 37° C., 4 to 6 hours
# Method: as §2, §3
# [10] = tested on: Candida glabrata ATCC 200918; experiment: antimicrobial resazurin growth assay, C. glabrata; assay type: cell-based; conditions: Nakaseomyces glabratus, ATCC200918; Potato Dextrose medium
# solubility (observation) = assay type: physicochemical
# [11] = tested on: Haemophilus influenzae A21515; experiment: antimicrobial resazurin growth assay, H. influenzae; assay type: cell-based; conditions: 37° C., 4 to 6 hours
# Method: as §2, §3
# [12] = tested on: vancomycin-sensitive Enterococcus faecalis; experiment: susceptibility assay by broth microdilution (NCCLS), E. faecalis; assay type: cell-based; conditions: Enterococcus faecalis VSE
# Method: as §1
# [13] = tested on: Escherichia coli ATCC 610100; experiment: antimicrobial resazurin growth assay, E. coli; assay type: cell-based; conditions: ATCC610100, 37° C., 4 to 6 hours
# Method: as §2, §3
# Escherichia coli imp = experiment: susceptibility assay by broth microdilution (NCCLS), E. coli; assay type: cell-based
# [14] = tested on: Streptococcus pneumoniae ATCC 661100; experiment: antimicrobial resazurin growth assay, S. pneumoniae; assay type: cell-based; conditions: ATCC661100, 37° C., 4 to 6 hours
# Method: as §2, §3
# [15] = tested on: Streptococcus pneumoniae 49619; experiment: susceptibility assay by broth microdilution (NCCLS), S. pneumoniae; assay type: cell-based
# Method: as §1
# [16] = tested on: PC-3 (ATCC CRL-1435) human prostate adenocarcinoma; experiment: tumor cytotoxicity assay (resazurin), PC-3; assay type: cell-based; conditions: 48 h, read-out: EC50 for the PC3 assay
# [17] = tested on: B16-F10 (ATCC CRL-6475) mouse melanoma; experiment: tumor cytotoxicity assay (resazurin), B16-F10; assay type: cell-based
# Method: as §4, with “B16-F10” for “Jurkat”, “CRL-6475)” for “TIB-152)”, “mouse melanoma” for “human acute T cell leukemia”, “in” for “in RPMI”, “DMEM (DMEM” for “medium (RPMI 1640 medium”, “HEPES,” for “HEPES, 1 mM Na pyruvate, 1X NEAA,”
smiles,measurement,setting,value
CCC/C=C/CC1C/C=C/C=C(C)/C=C/C=C\C(O)CC(O)C(O)/C=C/C=C/C=C/C(=O)N1 (stereo not drawn) [compound of Formula (I)],MLC,[1],>32 µg/mL
same,MIC,[1]; Staphylococcus aureus,> 32 µg/mL
same,MIC,[2],> 32 µg/mL
same,MLC,[2],>32 µg/mL
same,IC50,[3],3 µg/mL and 6.6 µM
same,IC50,[4],1 µg/mL and 2.2 µM
same,MLC,[5],>32 µg/mL
same,MIC,[5]; Pseudomonas aeruginosa,> 32 µg/mL
same,MLC,[6],>32 µg/mL
same,MIC,[6]; Staphylococcus aureus,12 µg/mL
same,EC50,"[7]; compound alone, read-out: EC50 in the HT-29 assay",0.922 µg/mL and 2.03 µM
same,EC50,"[7]; compound with interferon, read-out: EC50 in the HT-29 assay",0.263 µg/mL and 580 nM
same,EC50,"[7]; further evaluation (Table 2), read-out: HT-29 EC50",3.62 ± 2.57 µM
same,MIC,Candida albicans 90028,> 32 µg/mL
same,MLC,Candida albicans 90028,>32 µg/mL
same,EC50,"[8]; further evaluation (Table 2), 48 hours, read-out: Jurkat EC50",2330 ± 1110 nM
same,EC50,"[8]; one set of evaluations, unit inferred, read-out: EC50 for the Jurkat cells",2330 ± 1110 nM
same,IC50,[9],> 4 µg/mL
same,IC50,[10],3 µg/mL and 6.6 µM
same,solubility,solubility (observation),substantially insoluble
same,IC50,[11],> 4 µg/mL
same,MIC,[12],32 µg/mL
same,MLC,[12],>32 µg/mL
same,IC50,[13],> 4 µg/mL
same,MIC,Escherichia coli imp; Escherichia coli,> 32 µg/mL
same,MLC,Escherichia coli imp; Escherichia coli imp,>32 µg/mL
same,IC50,[14],4 µg/mL and 8.8 µM
same,MIC,[15],32 µg/mL
same,MLC,[15],>32 µg/mL
same,EC50,[16]; compound alone,1.29 µg/mL and 2.84 µM
same,EC50,[16]; compound with TNF-α,0.988 µg/mL and 2.18 µM
same,EC50,"[17]; further evaluation (Table 2), 48 hours, read-out: B16-F10 EC50",2160 ± 870 nM
same,EC50,"[17]; one set of evaluations, unit inferred, read-out: EC50 for the B16-F10 cells",2160 ± 870 nM
